Converted amounts (≈) assume the structure as drawn.
Columns and labels:
Experiment in all cases: MIC, MHB microdilution
P. aeruginosa PAO1, WT = test system: P. aeruginosa PAO1, WT
[1] = test system: PAO1 mutant MIN1_RW01_1, pmrB(Y98N); details: Pseudomonas aeruginosa, PAO1, read-out: MIC, MHB microdilution
[2] = test system: PAO1 mutant MIN1_RW01_3, pmrB(V215L); details: Pseudomonas aeruginosa, PAO1, read-out: MIC, MHB microdilution
[3] = test system: PAO1 mutant MIN2_RW01_2, pmrB(M292T); details: Pseudomonas aeruginosa, PAO1, read-out: MIC, MHB microdilution
[4] = test system: PAO1 mutant MIN8_1, nalD(R3C), pilM(Q62X); details: Pseudomonas aeruginosa, PAO1, read-out: MIC, MHB microdilution
[5] = test system: PAO1 mutant MIN16_4, nalC(T50P), pilM(Q62X); details: Pseudomonas aeruginosa, PAO1, read-out: MIC, MHB microdilution

Question: For `CN(C)c1ccc(O)c2c1C[C@H]1C[C@H]3[C@H](N(C)C)C(O)=C(C(N)=O)C(=O)[C@@]3(O)C(O)=C1C2=O` [Minocycline, minocycline], which “MIC of MIN + RW01, MHB microdilution” value (P. aeruginosa PAO1, WT; PAO1 WT, minocycline MIC in combination with RW01, listed as MIN) is on record?
Answer: 0.5 to 1 µg/mL

Question: And the MIC (P. aeruginosa PAO1, WT; Pseudomonas aeruginosa, PAO1, read-out: MIC, MHB microdilution)?
Answer: 4 to 8 µg/mL (≈ 8.74 to 17.5 µM)

Question: What about the MIC [1] of the same compound?
Answer: 16 µg/mL (≈ 35 µM)

Question: And the MIC [2]?
Answer: 16 µg/mL (≈ 35 µM)

Question: And the MIC [3]?
Answer: 16 to 32 µg/mL (≈ 35 to 69.9 µM)

Question: What about the MIC [4] of the same compound?
Answer: 16 µg/mL (≈ 35 µM)

Question: What about the MIC [5] of the same compound?
Answer: 16 µg/mL (≈ 35 µM)

Source: PMC11823630, “In vitro potentiation of tetracyclines in Pseudomonas aeruginosa by RW01, a new cyclic peptide” (Antimicrobial Agents and Chemotherapy, 2024)
